These results are taken from patent US11555012B2 (Nimbus Artemis, Inc., priority 2018, dated 2023).

The subject of assay [1] is HepG2 cells. Briefly: ACLY HepG2 14C-Pyruvate incorporation assay with serum (IC50 Cholesterol). It counts as cell-based. The following applies: Homo sapiens, table title: with serum, column head: serum free, 96 well. An excerpt: The protocol below was followed:
(§1) 5. […] 6. […] 7. […] 8. […] 9. Repeat the Step 8 10.

Assay [2] deals with HepG2 cells. Briefly: ACLY HepG2 14C-Pyruvate incorporation assay with serum (IC50 Fatty Acid). In kind it is cell-based. The following applies: Homo sapiens, table title: with serum, column head: serum free, 96 well, read-out: ACLY HepG2 14C-Pyruvate Assay serum free IC50 FA 96 well (IC50).
Description: Example 333. ACLY HepG2 ^14C-Pyruvate Incorporation Assay (IC50 Fatty Acid)
as §1

Assay [3] deals with T1, ACL (Homo sapiens (Human), UniProt P53396). Put plainly: ADP-Glo Assay. In general terms: ADP-Glo first removes unused ATP, then detects ADP through luciferase.
Target sequence in this assay (P53396 other isoform, or with tags, fused parts or gaps isoform P53396-2): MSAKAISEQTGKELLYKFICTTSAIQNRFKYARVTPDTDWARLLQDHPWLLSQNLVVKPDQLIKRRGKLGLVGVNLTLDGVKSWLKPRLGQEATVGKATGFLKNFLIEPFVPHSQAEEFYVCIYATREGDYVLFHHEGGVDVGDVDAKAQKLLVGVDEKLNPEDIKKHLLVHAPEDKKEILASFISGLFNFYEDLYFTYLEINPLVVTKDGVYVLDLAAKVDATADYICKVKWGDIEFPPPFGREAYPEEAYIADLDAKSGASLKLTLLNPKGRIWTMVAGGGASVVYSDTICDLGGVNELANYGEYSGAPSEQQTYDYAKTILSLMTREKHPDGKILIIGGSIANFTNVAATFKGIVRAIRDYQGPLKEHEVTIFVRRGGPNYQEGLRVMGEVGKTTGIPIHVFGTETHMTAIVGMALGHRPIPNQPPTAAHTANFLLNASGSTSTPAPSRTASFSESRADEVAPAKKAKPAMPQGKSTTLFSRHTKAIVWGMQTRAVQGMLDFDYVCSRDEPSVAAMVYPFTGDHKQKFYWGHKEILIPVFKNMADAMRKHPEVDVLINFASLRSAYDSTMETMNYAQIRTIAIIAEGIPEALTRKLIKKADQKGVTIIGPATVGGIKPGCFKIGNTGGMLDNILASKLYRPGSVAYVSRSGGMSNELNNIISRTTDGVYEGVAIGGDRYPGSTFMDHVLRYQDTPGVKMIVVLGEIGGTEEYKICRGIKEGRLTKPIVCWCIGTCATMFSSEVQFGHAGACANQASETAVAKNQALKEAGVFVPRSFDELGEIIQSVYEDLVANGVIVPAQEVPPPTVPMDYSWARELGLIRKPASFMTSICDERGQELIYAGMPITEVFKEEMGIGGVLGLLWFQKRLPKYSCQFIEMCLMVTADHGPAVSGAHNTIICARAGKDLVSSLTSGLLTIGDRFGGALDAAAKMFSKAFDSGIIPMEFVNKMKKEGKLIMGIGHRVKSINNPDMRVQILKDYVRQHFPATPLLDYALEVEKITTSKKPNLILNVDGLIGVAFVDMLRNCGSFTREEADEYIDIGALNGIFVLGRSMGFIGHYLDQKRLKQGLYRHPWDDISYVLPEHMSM
Assay [4] concerns the target T1, ACL. Put plainly: ACLY-MDH Coupled Assay.
Target sequence in this assay (P53396 whole entry, species assumed): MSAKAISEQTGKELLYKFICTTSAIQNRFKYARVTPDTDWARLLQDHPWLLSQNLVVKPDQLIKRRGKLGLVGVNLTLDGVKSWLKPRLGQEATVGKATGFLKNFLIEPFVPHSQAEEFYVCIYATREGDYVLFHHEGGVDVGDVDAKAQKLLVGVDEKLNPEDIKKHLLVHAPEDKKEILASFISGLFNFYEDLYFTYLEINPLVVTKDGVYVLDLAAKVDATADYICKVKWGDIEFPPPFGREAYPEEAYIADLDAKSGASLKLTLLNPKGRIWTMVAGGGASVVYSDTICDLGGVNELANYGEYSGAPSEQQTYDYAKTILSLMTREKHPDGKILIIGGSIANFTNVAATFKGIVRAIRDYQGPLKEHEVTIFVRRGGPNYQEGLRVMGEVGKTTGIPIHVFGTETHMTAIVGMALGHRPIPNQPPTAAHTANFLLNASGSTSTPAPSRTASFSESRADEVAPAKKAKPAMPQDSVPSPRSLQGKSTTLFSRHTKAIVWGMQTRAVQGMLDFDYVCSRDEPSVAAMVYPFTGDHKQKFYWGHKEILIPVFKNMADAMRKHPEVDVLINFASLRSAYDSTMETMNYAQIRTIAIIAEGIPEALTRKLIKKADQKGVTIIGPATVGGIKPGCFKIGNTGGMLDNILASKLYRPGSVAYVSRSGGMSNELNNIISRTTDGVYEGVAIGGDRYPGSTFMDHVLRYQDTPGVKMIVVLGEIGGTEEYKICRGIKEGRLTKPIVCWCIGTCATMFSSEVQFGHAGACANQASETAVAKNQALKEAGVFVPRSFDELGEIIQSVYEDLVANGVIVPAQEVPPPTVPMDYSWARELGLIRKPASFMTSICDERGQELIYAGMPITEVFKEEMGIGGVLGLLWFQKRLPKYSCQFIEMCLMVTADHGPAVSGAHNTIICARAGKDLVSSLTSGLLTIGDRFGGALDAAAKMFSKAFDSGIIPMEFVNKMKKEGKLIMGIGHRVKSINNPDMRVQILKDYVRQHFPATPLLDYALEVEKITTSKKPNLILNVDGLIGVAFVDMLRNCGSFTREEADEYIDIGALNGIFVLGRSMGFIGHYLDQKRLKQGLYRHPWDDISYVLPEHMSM
Description: Compounds of the present invention were evaluated in an ACLY Coupled Assay.
The assay protocol for the Coupled Assay (below) was followed:
b) Add 1 μL cpds to 96 assay plate, Test cpd conc: 100/30/10 μM top dose, 3 folds dilution, 10+0+control (control: buffer without ACL+DMSO) points, 1000 rpm for 1 min, incubation at 25° C. for 60 min
In assay [5] the test system is HepG2 cells. Particulars: Homo sapiens, HepG2, read-out: ACLY HepG2 14C-Pyruvate Assay serum free IC50 FA (IC50) [μM].
Description: ACLY HepG2 ^14C-Pyruvate Incorporation Serum-Free Assay (IC50 Fatty
The protocol of the assay (below) was followed:
(§2) After 48 hours, change medium with fresh growth medium.
(§3) After 18 hours, replaced medium using 0.5 mL fresh medium (5.5 mM Glucose, without FBS, 1% PS, without Pyruvate) containing Compounds or 0.5% DMSO, incubated at 37° C., 5% CO2 for 1 hour.
(§4) Add 3 μci of [14C]-pyruvate per well to the cell samples were incubated at 37° C., 5% CO2 for 5 hours.
Medium was removed and placed into a 15 mL centrifuge tube. Add 0.5 mL of 0.1M NaOH to each well and then transfer the cell lysates into the corresponding 15 mL centrifuge tubes. 1.0 mL of EtOH and 0.17 mL 50% KOH were added to 15 mL tubes containing medium and cell suspensions, then shaking tube gently. […] Saponification 15 mL tubes containing medium and cell suspensions were incubated at 90° C. for 1 hour, then cooled to room temperature. […] Cholesterol Extraction 5 mL of petroleum ether was added per tube to extract Cholesterol, shaken vigorously, centrifuged at 1000 rpm for 5 min, and ˜5 mL of the petroleum ether layer was transferred to a new glass tube (18*180 mm). […] Acidification The samples in 15 mL tube were acidified directly with 1 mL concentrated HCl, make sure pH was below 1. […] Fatty Acids Extraction 5 mL of petroleum ether was added per tube, shaken vigorously, centrifuged at 1000 rpm for 5 min, 5 mL of the petroleum ether layer was transferred to the corresponding glass tube. […] Repeat the Step 8 10. Count The petroleum ether extracts were pooled and evaporated to dryness overnight. The residue from the petroleum ether fractions were resuspended in 500 μL of chloroform-hexane (1:1) containing 420 μg of linoleic acid as a carrier. Add 200 μL of resuspending (chloroform-hexane (1:1) containing 168 μg of linoleic acid) to 2 mL Ultima Gold™, after 30 min, count on a scintillation counter.
Assay [6] deals with HepG2 cells. Particulars: Homo sapiens, HepG2, read-out: ACLY HepG2 14C-Pyruvate Assay serum free IC50 Cholesterol (IC50) [μM].
Description: ACLY HepG2 ^14C-Pyruvate Incorporation Serum-Free Assay (IC50 Cholesterol and Fatty Acid Synthesis)
Compounds of the present invention were evaluated in a HepG2 ^14C-pyruvate incorporation assay. The protocol below was followed:
as §2, §3, §4
Medium was removed and placed into a 15 mL centrifuge tube. Add 0.5 mL of 0.1M NaOH to each well and then transfer the cell lysates into the corresponding 15 mL centrifuge tubes. 1.0 mL of EtOH and 0.17 mL 50% KOH were added to 15 mL tubes containing medium and cell suspensions, then shaking tube gently. […] Saponification 15 mL tubes containing medium and cell suspensions were incubated at 90° C. for 1 hour, then cooled to room temperature. […] Cholesterol Extraction 5 mL of petroleum ether was added per tube to extract Cholesterol, shaken vigorously, centrifuged at 1000 rpm for 5 min, and ˜5 mL of the petroleum ether layer was transferred to a new glass tube (18*180 mm). […] Acidification The samples in 15 mL tube were acidified directly with 1 mL concentrated HCl, make sure pH was below 1. […] Fatty Acids Extraction 5 mL of petroleum ether was added per tube, shaken vigorously, centrifuged at 1000 rpm for 5 min, 5 mL of the petroleum ether layer was transferred to the corresponding glass tube. […] Count The petroleum ether extracts were pooled and evaporated to dryness overnight. The residue from the petroleum ether fractions were resuspended in 500 μL of chloroform-hexane (1:1) containing 420 μg of linoleic acid as a carrier. Add 200 μL of resuspending (chloroform-hexane (1:1) containing 168 μg of linoleic acid) to 2 mL Ultima Gold™, after 30 min, count on a scintillation counter.
Where [7] appears, read: read-out: ACL-ADP-Glo (IC50), 3 nM ACL, 15 μM ATP, 3 μM CoA, 300 μM Citrate.
[8] abbreviates: read-out: ACL-MDH Coupled Assay (IC50), 8 nM ACL, 60 μM CoA Na2, 85 μM Citrate, 250 μM ATP, 250 μM NADH.

pIC50: −log10 of the molar value. Like-named read-outs stand apart in the source and are kept apart here.

Take `CCOC(=O)c1cc(Cl)c(O)c(S(=O)(=O)Nc2cc(-c3ccccc3)c(F)cc2F)c1` [I-84, ethyl 3-chloro-5-[(2,4-difluoro-5-phenylphenyl)sulfamoyl]-4-hydroxybenzoate]: the pIC50 (commonly the negative decadic logarithm of the IC50, by convention in mol/L) in the assay on HepG2 cells [1] is greater than 6.00; in the assay on HepG2 cells [2], 5.30 to 6.00; on ACL [3] (setting [7]) it was greater than 7.30; on ACL [4] (setting [8]), greater than 7.30. Moreover, the IC50 – broadly, the midpoint of a concentration-inhibition curve – in the assay with HepG2 cells [5] was 1 to 10 µM; in the assay on HepG2 cells [6] it was less than 1 µM.
Consider `O=S(=O)(Nc1cc(-c2ccccc2)c(F)cc1F)c1cc(-c2cncs2)cc(Cl)c1O` [I-123, 3-chloro-N-(4,6-difluoro-[1,1′-biphenyl]-3-yl)-2-hydroxy-5-(thiazol-5-yl)benzenesulfonamide], for which the pIC50 in the assay on HepG2 cells [1] was greater than 6.00; in the assay with HepG2 cells [2], 5.30 to 6.00; on ACL [3] (setting [7]), greater than 7.30; at ACL [4] (setting [8]), greater than 7.30. The half-maximal inhibitory concentration (IC50) in the assay with HepG2 cells [5] was 1 to 10 µM; with HepG2 cells [6], less than 1 µM.
For `Cc1cc(Cl)c(O)c(S(=O)(=O)Nc2cc(-c3ccccc3)c(F)cc2F)c1` [I-157, 3-chloro-N-(4,6-difluoro-[1,1′-biphenyl]-3-yl)-2-hydroxy-5-methylbenzenesulfonamide], the pIC50 in the assay with HepG2 cells [1] was 5.30 to 6.00; with HepG2 cells [2] it was 4.70 to 5.30; at ACL [3] it was 6.30 to 7.30; against ACL [4] it was 6.30 to 7.30. Moreover, the half-maximal inhibitory concentration (IC50) with HepG2 cells [5] was 1 to 10 µM; with HepG2 cells [6], 1 to 5 µM.
On to `COC(=O)c1cc(Cl)c(O)c(S(=O)(=O)Nc2cc(C(C)C)c(F)cc2F)c1` [I-198, Methyl 3-chloro-5-(N-(2,4-difluoro-5-isopropylphenyl)sulfamoyl)-4-hydroxybenzoate], for which the pIC50 at ACL [3] (setting [7]) and at ACL [4] (setting [8]) was greater than 7.30 in each case. For the same molecule, the IC50 with HepG2 cells [5] is greater than 10 µM; with HepG2 cells [6] it was 1 to 5 µM.
On to `O=C(O)c1ccc(-c2ccccc2)cc1NS(=O)(=O)c1cc(Cl)cc(Cl)c1` [I-208, 3-((3,5-dichlorophenyl)sulfonamido)-[1,1′-biphenyl]-4-carboxylic Acid], for which the pIC50 at ACL [3] and on ACL [4] was 6.30 to 7.30 throughout. Moreover, the IC50 in the assay on HepG2 cells [5] fell in the range of 1 to 10 µM; in the assay with HepG2 cells [6], 1 to 5 µM.
As for `CC(C)C(=O)Oc1c(Cl)cc(-c2cncs2)cc1S(=O)(=O)Nc1cc(-c2ccccc2)c(F)cc1F` [I-213, 2-chloro-6-(N-(4,6-difluoro-[1,1′-biphenyl]-3-yl)sulfamoyl)-4-(thiazol-5-yl)phenyl Isobutyrate], the pIC50 against ACL [3] and on ACL [4] was 6.30 to 7.30 each time. Besides, the IC50 with HepG2 cells [5] was in the range of 1 to 10 µM; in the assay on HepG2 cells [6], 1 to 5 µM.
In the case of `O=C(O)c1ccc(-c2ccccc2)cc1NS(=O)(=O)c1cc(Cl)cc(C(F)(F)F)c1` [I-220, 3-((3-chloro-5-(trifluoromethyl)phenyl)sulfonamido)-[1,1′-biphenyl]-4-carboxylic acid], the pIC50 is 5.30 to 6.00 in the assay on HepG2 cells [1], 5.30 to 6.00 in the assay on HepG2 cells [2], 6.30 to 7.30 on ACL [3] and 6.30 to 7.30 on ACL [4]. Moreover, the IC50 in the assay on HepG2 cells [5] was 1 to 10 µM; in the assay on HepG2 cells [6] it was 1 to 5 µM.
As for `O=C(O)c1ccc(-c2ccccc2)cc1NS(=O)(=O)c1cc(F)cc(Cl)c1` [I-233, 3-((3-chloro-5-fluorophenyl)sulfonamido)-[1,1′-biphenyl]-4-carboxylic acid], the results for the pIC50 against ACL [3] and at ACL [4] were 4.70 to 6.30 and 6.30 to 7.30, respectively. Further, the IC50 in the assay on HepG2 cells [5] was in the range of 1 to 10 µM; with HepG2 cells [6], 5 to 20 µM.
As to `O=S(=O)(Nc1ccc(-c2ccccn2)cc1F)c1cc(Cl)cc(Cl)c1O` [I-235, 3,5-dichloro-N-(2-fluoro-4-(pyridin-2-yl)phenyl)-2-hydroxybenzenesulfonamide], the results for the pIC50 against ACL [3] and against ACL [4] were 4.70 to 6.30 and 4.52 to 6.30, respectively. The results for the IC50 in the assay with HepG2 cells [5] and in the assay on HepG2 cells [6] were greater than 10 µM and 1 to 5 µM, respectively.
Regarding `O=C(Oc1c(Cl)cc(C(=O)N2CCC2)cc1S(=O)(=O)Nc1cc(-c2ccccc2)c(F)cc1F)C1CC1` [I-236, 4-(azetidine-1-carbonyl)-2-chloro-6-(N-(4,6-difluoro-[1,1′-biphenyl]-3-yl)sulfamoyl)phenyl cyclopropanecarboxylate], the pIC50 on ACL [3] (setting [7]) is greater than 7.30; against ACL [4], 6.30 to 7.30. For the same molecule, the concentration for half-maximal inhibition (IC50) with HepG2 cells [5] was greater than 10 µM; in the assay on HepG2 cells [6], 1 to 5 µM.
For the molecule `O=C(Nc1cc(-c2ccccc2)ccc1C(=O)O)c1cc(Cl)cc(Cl)c1` [I-260, 3-(3,5-dichlorobenzamido)-[1,1′-biphenyl]-4-carboxylic Acid], the pIC50 at ACL [3] is 4.70 to 6.30; on ACL [4], 4.52 to 6.30. For the same molecule, the IC50 was 1 to 10 µM with HepG2 cells [5] and 1 to 5 µM in the assay with HepG2 cells [6].
With `O=S(=O)(Nc1cc(-c2ccccc2)c(F)cc1F)c1cc(CN2CCC2)cc(Cl)c1O` [I-272, 5-(azetidin-1-ylmethyl)-3-chloro-N-(4,6-difluoro-[1,1′-biphenyl]-3-yl)-2-hydroxybenzenesulfonamide], the pIC50 against ACL [3] is 4.70 to 6.30; at ACL [4], 4.52 to 6.30. For the same molecule, the IC50 with HepG2 cells [5] is greater than 10 µM; with HepG2 cells [6], 1 to 5 µM.
With `O=C(O)c1ccc(-c2cccs2)cc1NS(=O)(=O)c1cc(Cl)cc(Cl)c1` [I-275, 2-((3,5-dichlorophenyl)sulfonamido)-4-(thiophen-2-yl)benzoic acid], the negative logarithm of the IC50 (pIC50) against ACL [3] and against ACL [4] was 6.30 to 7.30 in each case. The IC50 in the assay with HepG2 cells [5] fell in the range of 1 to 10 µM; in the assay with HepG2 cells [6] it was 1 to 5 µM.
As for `COc1c(Cl)cc(Cl)cc1S(=O)(=O)Nc1cc(-c2ccccc2)ccc1C(=O)O` [I-281, 3-((3,5-dichloro-2-methoxyphenyl)sulfonamido)-[1,1′-biphenyl]-4-carboxylic Acid], the pIC50 against ACL [3] and against ACL [4] was 6.30 to 7.30 each time. In addition, the figures for the IC50 in the assay on HepG2 cells [5] and in the assay with HepG2 cells [6] were 1 to 10 µM and 1 to 5 µM, respectively.
Consider `O=C(O)c1cc(F)c(-c2ccccc2)cc1NS(=O)(=O)c1cc(Cl)cc(Cl)c1` [I-287, 5-((3,5-dichlorophenyl)sulfonamido)-2-fluoro-[1,1′-biphenyl]-4-carboxylic Acid], for which the pIC50 at ACL [3] and on ACL [4] was 6.30 to 7.30 in each case. Further, the IC50 in the assay on HepG2 cells [5] was in the range of 1 to 10 µM; in the assay on HepG2 cells [6] it was 1 to 5 µM.
Consider `COc1c(Cl)cc(C(F)(F)F)cc1S(=O)(=O)Nc1cc(-c2ccccc2)ccc1C(=O)O` [I-296, 3-((3-chloro-2-methoxy-5-(trifluoromethyl)phenyl)sulfonamido)-[1,1′-biphenyl]-4-carboxylic Acid], for which the pIC50 against ACL [3] and against ACL [4] was 6.30 to 7.30 in each case. The IC50 with HepG2 cells [5] lay within 1 to 10 µM; in the assay with HepG2 cells [6] it was 1 to 5 µM.
Turning to `O=c1[nH]cc(Cl)cc1S(=O)(=O)Nc1cc(-c2ccccc2)c(F)cc1F` [I-298, 5-chloro-N-[4,6-difluoro-[1,1-biphenyl]-3-yl]-2-oxo-1,2-dihydropyridine-3-sulfonamide], the pIC50 at ACL [3] and on ACL [4] was 6.30 to 7.30 throughout. Further, the half-maximal inhibitory concentration (IC50) was greater than 10 µM with HepG2 cells [5] and 5 to 20 µM in the assay on HepG2 cells [6].
Turning to `O=C(O)c1ccc(C2CC2)cc1NS(=O)(=O)c1cc(Cl)cc(C(F)(F)F)c1` [I-344, 2-((3-chloro-5-(trifluoromethyl)phenyl)sulfonamido)-4-cyclopropylbenzoic acid], the pIC50 against ACL [3] is 4.70 to 6.30; against ACL [4], 4.52 to 6.30. Besides, the IC50 in the assay on HepG2 cells [5] lay within 1 to 10 µM; in the assay on HepG2 cells [6] it was 1 to 5 µM.
As to `CCOc1c(Cl)cc(Cl)cc1S(=O)(=O)Nc1cc(-c2ccccc2)ccc1C(=O)O` [I-348, 3-((3,5-dichloro-2-ethoxyphenyl)sulfonamido)-[1,1′-biphenyl]-4-carboxylic Acid], the negative logarithm of the IC50 (pIC50) at ACL [3] and at ACL [4] was 6.30 to 7.30 throughout. Moreover, the concentration for half-maximal inhibition (IC50) fell in the range of 1 to 10 µM with HepG2 cells [5] and 1 to 5 µM in the assay with HepG2 cells [6].
`O=C(Nc1cc(-c2ccccc2)ccc1C(=O)O)c1cc(Cl)cc(C(F)(F)F)c1` [I-349, 3-(3-chloro-5-(trifluoromethyl)benzamido)-[1,1′-biphenyl]-4-carboxylic Acid]: the pIC50 was 4.70 to 6.30 at ACL [3] and 4.52 to 6.30 against ACL [4]. The results for the IC50 in the assay with HepG2 cells [5] and in the assay with HepG2 cells [6] were 1 to 10 µM and 1 to 5 µM, respectively.
`O=C(O)c1c(NS(=O)(=O)c2cc(Cl)cc(Cl)c2)sc2ccccc12` [I-361, 2-((3,5-dichlorophenyl)sulfonamido)benzo[b]thiophene-3-carboxylic acid]: the pIC50 against ACL [3] was 4.70 to 6.30; on ACL [4], 4.52 to 6.30. Besides, the figures for the IC50 in the assay with HepG2 cells [5] and in the assay on HepG2 cells [6] were greater than 10 µM and 1 to 5 µM, respectively.
For `Cc1cc(C(=O)O)c(NS(=O)(=O)c2cc(Cl)cc(C(F)(F)F)c2)cc1-c1ccccc1` [I-364, 5-((3-chloro-5-(trifluoromethyl)phenyl)sulfonamido)-2-methyl-[1,1′-biphenyl]-4-carboxylic Acid], the pIC50 on ACL [3] was 4.70 to 6.30; against ACL [4], 4.52 to 6.30. Moreover, the IC50 in the assay with HepG2 cells [5] lay within 1 to 10 µM; with HepG2 cells [6] it was 1 to 5 µM.
For the molecule `O=C(O)c1ccc(-c2ccccc2)cc1NS(=O)(=O)c1cccc(-n2cnnn2)c1` [I-372], the figures for the negative-log IC50 (pIC50) against ACL [3] and against ACL [4] were 4.70 to 6.30 and 4.52 to 6.30, respectively. Also, the IC50 in the assay on HepG2 cells [5] is greater than 10 µM; with HepG2 cells [6], 1 to 5 µM.
